Experiments:
Format in all cases: functional, cell-based
M14 = test: Antiproliferative activity against human M14 cells measured after 72 hrs by MTS assay; conditions: M14, 72 h
MDA-MB-231 = test: Antiproliferative activity against human MDA-MB-231 cells measured after 72 hrs by MTS assay; conditions: MDA-MB-231, 72 h
SK-BR-3 = test: Antiproliferative activity against human SK-BR-3 cells measured after 72 hrs by MTS assay; conditions: SK-BR-3, 72 h
RPMI-7951 = test: Antiproliferative activity against human RPMI7951 cells measured after 72 hrs by MTS assay; conditions: RPMI-7951, 72 h
MDA-MB-453 = test: Antiproliferative activity against human MDA-MB-453 cells measured after 72 hrs by MTS assay; conditions: MDA-MB-453, 72 h
A-375 = test: Antiproliferative activity against human A375 cells measured after 72 hrs by MTS assay; conditions: A-375, 72 h

IC50 (MDA-MB-231)	IC50 (SK-BR-3)	IC50 (MDA-MB-453)	IC50 (A-375)	SMILES	IC50 (M14)	IC50 (RPMI-7951)
> 1000 nM	> 1000 nM	> 1000 nM	> 1000 nM	COc1cc(C(=O)c2cccc(-c3ccncc3)n2)cc(OC)c1OC	> 1000 nM	> 1000 nM
> 1000 nM	> 1000 nM	> 1000 nM	> 1000 nM	COc1cc(C(=O)c2cccc(-c3cncnc3)n2)cc(OC)c1OC	> 1000 nM	> 1000 nM
> 1000 nM	> 1000 nM	> 1000 nM	> 1000 nM	COc1cc(C(=O)c2cccc(-c3cc(OC)c(OC)c(OC)c3)n2)cc(OC)c1OC	> 1000 nM	> 1000 nM
> 1000 nM	> 1000 nM	> 1000 nM	> 1000 nM	COc1cc(C(=O)c2cccc(-c3ccnc4ccccc34)n2)cc(OC)c1OC	> 1000 nM	> 1000 nM
20 nM	8.8 nM	15.8 nM	9 nM	COc1cc(C(=O)c2cccc(-c3ccc(C)c(C)c3)n2)cc(OC)c1OC	8.1 nM	8.4 nM
2.8 nM	1.6 nM	2.9 nM	3 nM	COc1cc(C(=O)c2cccc(-c3ccc(C)c(N)c3)n2)cc(OC)c1OC	3 nM	2 nM
50.7 nM	19.9 nM	18.1 nM	27.8 nM	COc1ccc(-c2cccc(C(=O)c3cc(OC)c(OC)c(OC)c3)n2)cc1	27.4 nM	32.1 nM
35.2 nM	12 nM	7.1 nM	15.6 nM	COc1cc(C(=O)c2cc(-c3ccc(C)cc3)ccn2)cc(OC)c1OC	16.3 nM	19.8 nM
41.4 nM	42.4 nM	24.5 nM	41.3 nM	COc1cccc(-c2cccc(C(=O)c3cc(OC)c(OC)c(OC)c3)n2)c1	34.7 nM	42.3 nM
9 nM	5 nM	6.9 nM	11.4 nM	COc1cc(C(=O)c2cccc(-c3ccc([N+](=O)[O-])cc3)n2)cc(OC)c1OC	10.9 nM	12.9 nM
27.1 nM	16.2 nM	13.4 nM	13.2 nM	COc1cc(C(=O)c2cccc(-c3ccc(N)cc3)n2)cc(OC)c1OC	12.1 nM	9.4 nM
20 nM	13.4 nM	13.5 nM	24.2 nM	COc1cc(C(=O)c2cccc(-c3ccc(C)c(Cl)c3)n2)cc(OC)c1OC	16.6 nM	22.6 nM
21 nM	22.4 nM	16.5 nM	19.5 nM	CCc1ccc(-c2cccc(C(=O)c3cc(OC)c(OC)c(OC)c3)n2)cc1	17.5 nM	18.3 nM
104 nM	18.8 nM	19.1 nM	24 nM	COc1cc(C(=O)c2cccc(-c3ccc(C(C)=O)cc3)n2)cc(OC)c1OC	22.5 nM	40.5 nM
> 1000 nM	> 1000 nM	> 1000 nM	> 1000 nM	COc1cc(C(=O)c2cccc(-c3c(C)cc(C)cc3C)n2)cc(OC)c1OC	> 1000 nM	> 1000 nM
23.6 nM	7 nM	7.9 nM	19.8 nM	COc1cc(C(=O)c2cccc(-c3ccc(C(F)(F)F)cc3)n2)cc(OC)c1OC	21.4 nM	19.6 nM
35.5 nM	67.3 nM	38.5 nM	34.1 nM	COc1cc(C(=O)c2cccc(-c3ccsc3)n2)cc(OC)c1OC	28.3 nM	27.9 nM

SMILES	IC50 (MDA-MB-231)	IC50 (SK-BR-3)	IC50 (MDA-MB-453)	IC50 (A-375)	IC50 (M14)	IC50 (RPMI-7951)
COc1cc(C(=O)c2cnc(-c3c[nH]c4ccccc34)[nH]2)cc(OC)c1OC [SABIZABULIN]	8.2 nM	13.3 nM	13.6 nM	10.4 nM	8.9 nM	8.8 nM

— ChEMBL document CHEMBL4376868, “Structure-Activity Relationship Study of Novel 6-Aryl-2-benzoyl-pyridines as Tubulin Polymerization Inhibitors with Potent Antiproliferative Properties” (J Med Chem, 2020)
